According to patent US7893092B2, “Anthranilamide derivatives as insecticides” (Syngenta Crop Protection, Inc., priority 2004, dated 2011):
Where two headings read alike, the source gives them in different places.

How the values were obtained:
[1] = test system: Spodoptera littoralis; experiment: Activity against Spodoptera littoralis (Example B8); assay type: in vivo; conditions: 72 h, young soya plants sprayed, 400 ppm active ingredient, 1st instar caterpillars, 3 days, read-out: percentage reduction in the population and in the feeding damage (% activity)
Procedure: (§1) Young soya plants are sprayed with an aqueous emulsion spray mixture comprising 400 ppm of active ingredient and, after the spray coating has dried on, populated with 10 caterpillars (1st instar) of Spodoptera littoralis and introduced into a plastic container. 3 days later, the percentage reduction in the population and in the feeding damage (% activity) are determined by comparing the number of dead caterpillars and the feeding damage between the treated and untreated plants.

[2] = test system: Plutella xylostella; experiment: Activity against Plutella xylostella (Example B7); assay type: in vivo; conditions: 72 h, young cabbage plants sprayed, 400 ppm active ingredient, 3rd instar caterpillars, 3 days, read-out: percentage reduction in the population and in the feeding damage (% activity)
Procedure: as §1, with “cabbage” for “soya”, “(3rd” for “(1st”, “Plutella xylostella” for “Spodoptera littoralis”

[3] = test system: Diabrotica balteata; experiment: Activity against Diabrotica balteata (Example B2); assay type: in vivo; conditions: 144 h, maize seedlings sprayed, 400 ppm active ingredient, 2nd instar larvae, 6 days, read-out: percentage reduction in the population (% activity)
Procedure: Maize seedlings are sprayed with an aqueous emulsion spray mixture comprising 400 ppm of active ingredient and, after the spray coating has dried on, populated with 10 larvae (2nd instar) of Diabrotica balteata and introduced into a plastic container. 6 days later, the percentage reduction in the population (% activity) is determined by comparing the number of dead larvae between the treated and untreated plants.

[4] = test system: Heliothis virescens; experiment: Activity against Heliothis virescens, foliar application (Example B3); assay type: in vivo; conditions: 144 h, young soya plants sprayed, 400 ppm active ingredient, 1st instar caterpillars, 6 days, read-out: percentage reduction in the population and in the feeding damage (% activity)
Procedure: as §1, with “Heliothis virescens” for “Spodoptera littoralis”, “6” for “3”

[5] = test system: Myzus persicae; experiment: Activity against Myzus persicae, foliar application (Example B5); assay type: in vivo; conditions: pea seedlings sprayed, 400 ppm active ingredient, 20°, 3 and 6 days, read-out: percentage reduction in the population (% activity)
Procedure: Pea seedlings are infected with Myzus persicae, subsequently sprayed with a spray mixture comprising 400 ppm of active ingredient and then incubated at 20°. 3 and 6 days later, the percentage reduction in the population (% activity) is determined by comparing the number of dead aphids between the treated and untreated plants.

[6] = test system: Spodoptera littoralis; experiment: Systemic insecticide test for Spodoptera littoralis (cotton leafworm) (Example B9); assay type: in vivo; conditions: 96 h, read-out: percentage of dead (activity)
Procedure: Four day old maize seedlings (Zea mays, variety Stoneville) are placed individual in vials containing 24 ml water into which the chemical is diluted at 12.5 ppm. Seedlings are allowed to grow for six days. Subsequently leaves are cut and placed in a Petri dish (5 cm diameter), inoculated with twelve to fifteen 1st instar S. littoralis larvae and incubated for four days in a growth chamber (25° C., 50% r.h., 18:6 L:D photo period). Number of alive insects are counted and percentage of dead calculated. Tests were conducted with one replicate. In this test, compounds listed in the Tables above show good activity. In particular compounds T1.1.17, T1.1.89, T41.1.1, T35.1.1, T40.1.1, T30.1.1, T44.1.1, T31.1.1, T31.1.2, T30.1.2, T1.1.17, T1.1.89, T16.1.1, T36.1.1, T16.1.1, T3.7.1, T18.1.1, T43.1.1, T42.1.1, T30.1.2, T30.1.1, T40.1.1, T41.1.1, T45.1.1, T35.1.1, T1.1.73, T18.1.1, T36.1.1, T1.1.1 and T1.1.73 have an activity of over 80%.

Cc1cc(Cl)cc(C(=O)NC(CS(C)(=N)=O)C(C)C)c1NC(=O)c1cc(C(F)(F)F)nn1-c1ncccc1Cl (stereo not shown)
melting point: 248 to 250 °C

CCCCC(CS(C)(=N)=O)NC(=O)c1cc(Cl)cc(C)c1NC(=O)c1cc(C(F)(F)F)nn1-c1ncccc1Cl (stereo not shown)
melting point: 225 to 226 °C

COC(=O)C(CCS(C)(=N)=O)NC(=O)c1cc(Cl)cc(C)c1NC(=O)c1cc(C(F)(F)F)nn1-c1ncccc1Cl (stereo not shown)
melting point: 207 to 209 °C

Cc1cc(Cl)cc(C(=O)NCC(C)S(C)(=O)=NC(=O)C(F)(F)F)c1NC(=O)c1cc(C(F)(F)F)nn1-c1ncccc1Cl (stereo not shown)
melting point: 125 to 130 °C

Cc1cc(C#N)cc(C(=O)NC2(CS(C)(=O)=NC(=O)C(F)(F)F)CC2)c1NC(=O)c1cc(C(F)(F)F)nn1-c1ncccc1Cl (stereo not shown)
melting point: 187 to 189 °C

Cc1cc(Cl)cc(C(=O)NC(C)(C)CS(C)(=N)=O)c1NC(=O)c1cc(C(F)(F)F)nn1-c1ncccc1Cl (stereo not shown) [T1.1.1]
inhibition at 400 ppm [1]: > 80%
inhibition at 400 ppm [2]: > 80%
inhibition at 400 ppm [3]: > 80%
inhibition at 400 ppm [4]: > 80%
inhibition at 400 ppm [5]: > 80%
pest or weed control at 12.5 ppm ([6]; in Zea mays): > 80%

Cc1cc(Cl)cc(C(=O)NC(C)(C)CS(C)(=N)=O)c1NC(=O)c1cc(OCC(F)(F)F)nn1-c1ncccc1Cl (stereo not shown) [T1.1.17]
inhibition at 400 ppm [1]: > 80%
inhibition at 400 ppm [2]: > 80%
inhibition at 400 ppm [3]: > 80%
pest or weed control at 12.5 ppm ([6]; in Zea mays): > 80%

Cc1cc(C#N)cc(C(=O)NC(C)(C)CS(C)(=N)=O)c1NC(=O)c1cc(C(F)(F)F)nn1-c1ncccc1Cl (stereo not shown) [T1.1.73]
inhibition at 400 ppm [1]: > 80%
inhibition at 400 ppm [2]: > 80%
inhibition at 400 ppm [3]: > 80%
pest or weed control at 12.5 ppm ([6]; in Zea mays): > 80%

Cc1cc(C#N)cc(C(=O)NC(C)(C)CS(C)(=N)=O)c1NC(=O)c1cc(OCC(F)(F)F)nn1-c1ncccc1Cl (stereo not shown) [T1.1.89]
inhibition at 400 ppm [1]: > 80%
inhibition at 400 ppm [2]: > 80%
inhibition at 400 ppm [3]: > 80%
pest or weed control at 12.5 ppm ([6]; in Zea mays): > 80%

Cc1cc(Cl)cc(C(=O)NC(C)(C)CS(C)(=O)=NC(=O)C(F)(F)F)c1NC(=O)c1cc(C(F)(F)F)nn1-c1ncccc1Cl (stereo not shown) [T3.1.1]
inhibition at 400 ppm [1]: > 80%
inhibition at 400 ppm [2]: > 80%
inhibition at 400 ppm [3]: > 80%
inhibition at 400 ppm [4]: > 80%
inhibition at 400 ppm [5]: > 80%
melting point: 112 to 115 °C

Cc1cc(Cl)cc(C(=O)NC(C)CS(C)(=N)=O)c1NC(=O)c1cc(C(F)(F)F)nn1-c1ncccc1Cl (stereo not shown) [T16.1.1]
inhibition at 400 ppm [1]: > 80%
inhibition at 400 ppm [2]: > 80%
inhibition at 400 ppm [3]: > 80%
inhibition at 400 ppm [4]: > 80%
pest or weed control at 12.5 ppm ([6]; in Zea mays): > 80%

Cc1cc(Cl)cc(C(=O)NC(C)CS(C)(=O)=NC(=O)C(F)(F)F)c1NC(=O)c1cc(C(F)(F)F)nn1-c1ncccc1Cl (stereo not shown) [T18.1.1]
inhibition at 400 ppm [1]: > 80%
inhibition at 400 ppm [2]: > 80%
inhibition at 400 ppm [3]: > 80%
pest or weed control at 12.5 ppm ([6]; in Zea mays): > 80%

Cc1cc(Cl)cc(C(=O)NCCS(C)(=N)=O)c1NC(=O)c1cc(C(F)(F)F)nn1-c1ncccc1Cl (stereo not shown) [T30.1.1]
inhibition at 400 ppm [1]: > 80%
inhibition at 400 ppm [2]: > 80%
pest or weed control at 12.5 ppm ([6]; in Zea mays): > 80%

CCS(=N)(=O)CCNC(=O)c1cc(Cl)cc(C)c1NC(=O)c1cc(C(F)(F)F)nn1-c1ncccc1Cl (stereo not shown) [T30.1.2]
inhibition at 400 ppm [1]: > 80%
inhibition at 400 ppm [2]: > 80%
pest or weed control at 12.5 ppm ([6]; in Zea mays): > 80%

Cc1cc(Cl)cc(C(=O)NCCS(C)(=O)=NC(=O)C(F)(F)F)c1NC(=O)c1cc(C(F)(F)F)nn1-c1ncccc1Cl (stereo not shown) [T31.1.1]
inhibition at 400 ppm [1]: > 80%
inhibition at 400 ppm [2]: > 80%
pest or weed control at 12.5 ppm ([6]; in Zea mays): > 80%

CCS(=O)(CCNC(=O)c1cc(Cl)cc(C)c1NC(=O)c1cc(C(F)(F)F)nn1-c1ncccc1Cl)=NC(=O)C(F)(F)F (stereo not shown) [T31.1.2]
inhibition at 400 ppm [1]: > 80%
inhibition at 400 ppm [2]: > 80%
pest or weed control at 12.5 ppm ([6]; in Zea mays): > 80%

Cc1cc(Cl)cc(C(=O)NCc2ccccc2S(C)(=N)=O)c1NC(=O)c1cc(C(F)(F)F)nn1-c1ncccc1Cl (stereo not shown) [T34.1.1]
inhibition at 400 ppm [1]: > 80%
inhibition at 400 ppm [2]: > 80%
melting point: 235 to 238 °C

Cc1cc(Cl)cc(C(=O)NCc2ccccc2S(C)(=O)=NC(=O)C(F)(F)F)c1NC(=O)c1cc(C(F)(F)F)nn1-c1ncccc1Cl (stereo not shown) [T35.1.1]
inhibition at 400 ppm [1]: > 80%
inhibition at 400 ppm [2]: > 80%
inhibition at 400 ppm [4]: > 80%
pest or weed control at 12.5 ppm ([6]; maize seedlings in water with 12.5 ppm, 6 days growth, cut leaves, 1st instar larvae, 4 days, one replicate): > 80%

Cc1cc(Cl)cc(C(=O)NCC(C)S(C)(=N)=O)c1NC(=O)c1cc(C(F)(F)F)nn1-c1ncccc1Cl (stereo not shown) [T36.1.1]
inhibition at 400 ppm [1]: > 80%
inhibition at 400 ppm [2]: > 80%
pest or weed control at 12.5 ppm ([6]; in Zea mays): > 80%

CCC(CS(C)(=N)=O)NC(=O)c1cc(Cl)cc(C)c1NC(=O)c1cc(C(F)(F)F)nn1-c1ncccc1Cl (stereo not shown) [T38.1.1]
inhibition at 400 ppm [2]: > 80%
melting point: 180 to 185 °C

CCC(CS(C)(=O)=NC(=O)C(F)(F)F)NC(=O)c1cc(Cl)cc(C)c1NC(=O)c1cc(C(F)(F)F)nn1-c1ncccc1Cl (stereo not shown) [T39.1.1]
inhibition at 400 ppm [2]: > 80%
melting point: 170 to 174 °C

Cc1cc(Cl)cc(C(=O)NCCCCS(C)(=N)=O)c1NC(=O)c1cc(C(F)(F)F)nn1-c1ncccc1Cl (stereo not shown) [T40.1.1]
inhibition at 400 ppm [1]: > 80%
inhibition at 400 ppm [2]: > 80%
pest or weed control at 12.5 ppm ([6]; in Zea mays): > 80%

Cc1cc(Cl)cc(C(=O)NCCCCS(C)(=O)=NC(=O)C(F)(F)F)c1NC(=O)c1cc(C(F)(F)F)nn1-c1ncccc1Cl (stereo not shown) [T41.1.1]
inhibition at 400 ppm [1]: > 80%
inhibition at 400 ppm [2]: > 80%
pest or weed control at 12.5 ppm ([6]; in Zea mays): > 80%

Cc1cc(Cl)cc(C(=O)NCC(C)(C)CS(C)(=N)=O)c1NC(=O)c1cc(C(F)(F)F)nn1-c1ncccc1Cl (stereo not shown) [T42.1.1]
inhibition at 400 ppm [1]: > 80%
inhibition at 400 ppm [2]: > 80%
pest or weed control at 12.5 ppm ([6]; in Zea mays): > 80%

Cc1cc(Cl)cc(C(=O)NCC(C)(C)CS(C)(=O)=NC(=O)C(F)(F)F)c1NC(=O)c1cc(C(F)(F)F)nn1-c1ncccc1Cl (stereo not shown) [T43.1.1]
inhibition at 400 ppm [1]: > 80%
inhibition at 400 ppm [2]: > 80%
pest or weed control at 12.5 ppm ([6]; in Zea mays): > 80%

Cc1cc(Cl)cc(C(=O)NCCOCCS(C)(=N)=O)c1NC(=O)c1cc(C(F)(F)F)nn1-c1ncccc1Cl (stereo not shown) [T44.1.1]
inhibition at 400 ppm [1]: > 80%
inhibition at 400 ppm [2]: > 80%
pest or weed control at 12.5 ppm ([6]; in Zea mays): > 80%

Cc1cc(Cl)cc(C(=O)NCCOCCS(C)(=O)=NC(=O)C(F)(F)F)c1NC(=O)c1cc(C(F)(F)F)nn1-c1ncccc1Cl (stereo not shown) [T45.1.1]
inhibition at 400 ppm [2]: > 80%
pest or weed control at 12.5 ppm ([6]; in Zea mays): > 80%

Cc1cc(Cl)cc(C(=O)NCCCCCCS(C)(=N)=O)c1NC(=O)c1cc(C(F)(F)F)nn1-c1ncccc1Cl (stereo not shown) [T46.1.1]
inhibition at 400 ppm [1]: > 80%
inhibition at 400 ppm [2]: > 80%
inhibition at 400 ppm [4]: > 80%
melting point: 148 to 152 °C

Cc1cc(Cl)cc(C(=O)NCCCCCCS(C)(=O)=NC(=O)C(F)(F)F)c1NC(=O)c1cc(C(F)(F)F)nn1-c1ncccc1Cl (stereo not shown) [T47.1.1]
inhibition at 400 ppm [1]: > 80%
inhibition at 400 ppm [2]: > 80%
melting point: 110 to 113 °C
